{"source": "patent US5620864A", "about": "“Acceptor for fucosyl transferase” (Health Research, Inc., priority 1992, dated 1997)", "key": {"[1]": {"tested_on": "α1,3-L-fucosyltransferase of the soluble fraction of human ovarian tumor", "assay": "Assay of α1,3-fucosyltransferase with synthetic acceptors, partially purified enzyme of ovarian tumor soluble fraction", "type": "biochemical", "conditions": "for [14C] Fucose Incorporated (CPM): acceptor 3.0 mM, 37° C. 18 h", "experimental": "(§1) An incubation mixture contained 50 mM HEPES-NaOH, pH 7.5, 5 mM MnC12, 7 mM ATP, 3 mM NaN3, the acceptor 0.3 mM (for serum enzyme) or 3.0 mM (for tumor enzyme), 0.125 μCi of GDP-[U-^14 C] Fuc (Sp. Act. 216 mCi/mmol) and enzyme in a total volume of 0.10 ml; the control incubation mixture had everything except the acceptor. At the end of incubation at 37° C. for 18 h, the mixture was diluted with 1 ml water and passed through Dowex-1-C1 column (1 ml in a Pasteur pipet). The column was washed twice with 1 ml water; the breakthrough and wash, which contained the [^14 C] fucosylated neutral acceptor, were collected together in a scintillation vial and counted for radioactivity using the scintillation coctail 3a70 (Research Products International, Mount Prospects, Ill.) and Beckman LS9000. The Dowex column was then eluted successively with 3 ml each of 0.1M and 0.2M NaCl; these eluates which contained the [^14 C] fucosylated sulfated acceptors, were counted for radioactivity as before. Corrections were made by subtracting the radioactivity in the water and NaCl eluates of the control incubation mixture from the corresponding test fractions. The duplicate runs of samples gave almost identical values, the difference being <5%.\nAs shown in the scheme set forth in FIG. 2, the α-L-fucosidase-free extract of the tissue (40 g), after concentration by 80% (NH4)2 SO4 precipitation was fractionated on bovine IgG glycopep-Sepharose in batches of 25 ml. After washing the column with the equilibration buffer, the bound enzyme was eluted with 1 M NaCl in the same buffer. The protein positive fractions were pooled and processed as shown in the scheme 2.0 ml of the above preparation was loaded on a Sephacryl S-200 column (Superfine:2.6 cm×88.0 cm) equilibrated at 4° C. with 50 mM Tris-HC1, pH 7.0 containing 0.15M NaCl and 0.1% Triton X-100 and eluted with the same buffer. Fractions of 3.0 ml were collected. The fucosyltransferase activity was located in the effluent fractions, by assaying first every 5th fraction and then obtaining the activity profile by assaying the alternate fractions in that range, using 2'-fucosyl LacNAc as the acceptor. […] Its elution position, which is slightly later than BSA, run separately on the same column, indicates its molecular weight as <67,000 daltons. […] The enzyme has been purified 66 fold over the soluble extract with a recovery of 6.2%. The enzyme at this stage lost its activity either kept frozen at -20° C. or left at 4° C. for more than a week. However, the enzyme at the end of the previous step was fairly stable for at least two months at 4° C. So this preparation of enzyme was used in acceptor ability comparison studies.\nWhen α1,3-fucosyltransferase activity of the partially purified enzyme preparation from the soluble portion of ovarian tumor was measured and compared with the activity of other acceptors, the following results were obtained. 2'-methyl LacNAc, LacNAc and Galβ1, 3GlcNAc were respectively 100.0%, 60.6% and 565.5% active, indicating the presence of both α1,3 and α1,4 fucosyltransferase activities in this preparation."}, "[2]": {"tested_on": "α1,3-L-fucosyltransferase of the particulate fraction of ovarian tumor", "assay": "Assay of α1,3-fucosyltransferase with synthetic acceptors, ovarian tumor particulate fraction", "type": "biochemical, human", "conditions": "for [14C] Fucose Incorporated (CPM): acceptor 3.0 mM, 37° C. 18 h", "experimental": "FIG. 2 The scheme for the preparation of the particulate and soluble fractions of human ovarian tumor.\nas §1\nThis finding is quite different from what we found with the soluble fraction, where α1,4-fucosyltransferase activity seems to be greater than α1,3-fucosyltransferase activity. […] The different nature of the above enzymes was made further clear, when sulfated derivatives of LacNAc was tested as acceptors."}, "[3]": {"conditions": "2'-methyl LacNAc = 100, listed as 3'-Sulfo LacNAc"}, "[4]": {"conditions": "2'-methyl LacNAc = 100, listed as 3'-sulfo LacNAc"}}, "note": "Several values for one entry are separate records, joined by “and”; a condition that tells them apart may be missing. Identical values can stand only once."}
{"compound": "CO[C@H]1[C@H](O[C@H]2[C@H](O)[C@@H](NC(C)=O)C(O)O[C@@H]2CO)O[C@H](CO)[C@H](O)[C@@H]1O", "note": "(stereo partly drawn) [2'-methyl LacNAc]", "values": [{"measurement": "Relative Percent", "setting": "[1]; 2'-methyl LacNAc = 100", "result": 100, "unit": "%"}, {"measurement": "[14C] Fucose Incorporated (CPM)", "setting": "[1]", "result": 7392, "unit": "CPM"}, {"measurement": "Relative Percent", "setting": "[2]; 2'-methyl LacNAc = 100", "result": 100, "unit": "%"}, {"measurement": "[14C] Fucose Incorporated (CPM)", "setting": "[2]", "result": 48252, "unit": "CPM"}]}
{"compound": "CC(=O)N[C@H]1C(O)O[C@H](CO)[C@@H](O[C@@H]2O[C@H](CO)[C@H](O)[C@H](OS(=O)(=O)O)[C@H]2O)[C@@H]1O", "note": "(stereo partly drawn) [3'-Sulfo-LacNAc, SODIUM β-D-GALACTOPYRANOSYL 3-SULFATE-(1→4)-2-ACETAMIDO-2-DEOXY-D-GLUCOPYRANOSE]", "values": [{"measurement": "Relative Percent", "setting": "[1]; 2'-methyl LacNAc = 100", "result": 447.1, "unit": "%"}, {"measurement": "Relative Percent", "setting": "[1]; [3]", "result": 447, "unit": "%"}, {"measurement": "Relative Percent", "setting": "[1]; [4]", "result": "447% and 447.1%"}, {"measurement": "[14C] Fucose Incorporated (CPM)", "setting": "[1]", "result": 33049, "unit": "CPM"}, {"measurement": "Relative Percent", "setting": "[2]; 2'-methyl LacNAc = 100", "result": 39.0, "unit": "%"}, {"measurement": "Relative Percent", "setting": "[2]; [3]", "result": 39, "unit": "%"}, {"measurement": "Relative Percent", "setting": "[2]; [4]", "result": 39.0, "unit": "%"}, {"measurement": "[14C] Fucose Incorporated (CPM)", "setting": "[2]", "result": 18793, "unit": "CPM"}]}
